From PMC8286840, “Identifying SARS-CoV-2 antiviral compounds by screening for small molecule inhibitors of Nsp3 papain-like protease” (Biochemical Journal, 2021)
Counter-ions that a name gives are not always drawn. Like-named read-outs stand apart in the source and are kept apart here. Where a SMILES comes first, the peptide text is derived from it.

How the values were obtained:
[1] = target: T1, SARS-CoV-2 PLpro (nsp3 1564–1878) (Severe acute respiratory syndrome coronavirus 2, UniProt P0DTD1); test: biochemical; parameters: FRET-quenched peptide (Pro3) cleavage by PLpro, 10 min pre-incubation, slope over 20 min, normalised to no-compound control; conditions: low concentration screen, read-out: % of control remaining
[2] = target: T1, SARS-CoV-2 PLpro (nsp3 1564–1878); test: biochemical; parameters: FRET-quenched peptide (Pro3) cleavage by PLpro, 10 min pre-incubation, slope over 20 min, normalised to no-compound control; conditions: high concentration screen, read-out: % of control remaining

SMILES: CC(=O)OCC(=O)[C@@]1(O)CC[C@H]2[C@@H]3CCC4=CC(=O)CC[C@]4(C)[C@H]3[C@@H](O)C[C@@]21C [Hydrocortisone (acetate)]
- remaining activity at 1.25 µM ([1]; Well no.=7342): 105%
- remaining activity at 3.75 µM ([2]; Well no.=7342): 109%

SMILES: CC12CC3CC(C)(C1)CC(N)(C3)C2 [Memantine.HCl]
- remaining activity at 1.25 µM ([1]; Well no.=1887): 94.9%
- remaining activity at 3.75 µM ([2]; Well no.=1887): 95.2%

SMILES: C[C@@H]1O[C@@H](Oc2c(-c3ccc(O)c(O)c3)oc3cc(O)cc(O)c3c2=O)[C@H](O)[C@H](O)[C@H]1O [Quercitrin]
- remaining activity at 1.25 µM ([1]; Well no.=3112): 96.4%
- remaining activity at 3.75 µM ([2]; Well no.=3112): 96.5%

SMILES: OC[C@H]1O[C@@H](n2cnc3c(Nc4ccccc4)ncnc32)[C@H](O)[C@@H]1O [N6-Phenyladenosine]
- remaining activity at 1.25 µM ([1]; Well no.=1501): 97.5%
- remaining activity at 3.75 µM ([2]; Well no.=1501): 100%

SMILES: Clc1cccc(Cl)c1NC1=NCCN1 [Clonidine hydrochloride]
- remaining activity at 1.25 µM ([1]; Well no.=138): 95.3%
- remaining activity at 3.75 µM ([2]; Well no.=138): 98.8%

SMILES: CN1CCN(c2nc(C3=C(c4c[nH]c5ccccc45)C(=O)NC3=O)c3ccccc3n2)CC1 [Sotrastaurin (AEB071)]
- remaining activity at 1.25 µM ([1]; Well no.=4747): 105%
- remaining activity at 3.75 µM ([2]; Well no.=4747): 109%

SMILES: Cc1cc(Nc2cc(N3CCN(C)CC3)nc(Sc3ccc(NC(=O)C4CC4)cc3)n2)n[nH]1 [Tozasertib]
- remaining activity at 1.25 µM ([1]; Well no.=2895): 101%
- remaining activity at 3.75 µM ([2]; Well no.=2895): 103%

SMILES: O=C(O)[C@@H]1CCCN1 [L-Proline]
- remaining activity at 1.25 µM ([1]; Well no.=7737): 105%
- remaining activity at 1.25 µM ([1]; Well no.=8324): 101%
- remaining activity at 3.75 µM ([2]; Well no.=7737): 108%
- remaining activity at 3.75 µM ([2]; Well no.=8324): 97.3%

SMILES: CO[C@H]1[C@H](OC(=O)c2ccc(C)[nH]2)[C@H](O)[C@@H](Oc2ccc3c(O)c(NC(=O)c4c[nH]c(C(=O)Nc5c(O)c6ccc(O[C@H]7OC(C)(C)[C@@H](OC)[C@H](OC(=O)c8ccc(C)[nH]8)[C@@H]7O)c(C)c6oc5=O)c4C)c(=O)oc3c2C)OC1(C)C [Coumermycin A1]
- remaining activity at 1.25 µM ([1]; Well no.=3175): 105%
- remaining activity at 3.75 µM ([2]; Well no.=3175): 104%

SMILES: CCOC(=O)[C@H](Cc1ccc([N+](=O)[O-])cc1)NC(=O)c1ccccc1 [SB297006]
- remaining activity at 1.25 µM ([1]; Well no.=8132): 103%
- remaining activity at 3.75 µM ([2]; Well no.=8132): 97.6%
- remaining activity at 3.75 µM ([2]; Well no.=8211): 102%

SMILES: CCCN(CCc1cccs1)[C@H]1CCc2c(O)cccc2C1 [Rotigotine]
- remaining activity at 1.25 µM ([1]; Well no.=8349): 92.3%
- remaining activity at 3.75 µM ([2]; Well no.=8349): 88.8%

SMILES: CC[C@H](C)[C@H](NC(=O)[C@@H]1CCCN1C(=O)[C@H](Cc1cnc[nH]1)NC(=O)[C@@H](NC(=O)[C@H](Cc1ccc(O)cc1)NC(=O)[C@@H](NC(=O)[C@H](CCCN=C(N)N)NC(=O)CNC)C(C)C)[C@@H](C)CC)C(=O)O [[Sar1, Ile8]-Angiotensin II (TFA)]
- remaining activity at 1.25 µM ([1]; Well no.=7588): 96%
- remaining activity at 3.75 µM ([2]; Well no.=7588): 92%

SMILES: CC(C)NCC(O)c1cc(O)cc(O)c1 (centres unmarked) [Metaproterenol hemisulfate]
- remaining activity at 1.25 µM ([1]; Well no.=826): 104%
- remaining activity at 3.75 µM ([2]; Well no.=826): 100%

SMILES: Nc1nc(F)nc2c1ncn2[C@@H]1O[C@H](CO)[C@@H](O)[C@@H]1O [Fludarabine (Fludara)]
- remaining activity at 1.25 µM ([1]; Well no.=5249): 98.3%
- remaining activity at 3.75 µM ([2]; Well no.=5249): 99.9%

SMILES: O=C1CC(c2c[nH]c3ccc(F)cc23)C(=O)N1 (centres unmarked) [PF-06840003]
- remaining activity at 1.25 µM ([1]; Well no.=8215): 104%
- remaining activity at 3.75 µM ([2]; Well no.=8215): 101%

SMILES: O=C(O)C(Cl)Cl [Sodium dichloroacetate (DCA)]
- remaining activity at 1.25 µM ([1]; Well no.=8490): 96.6%
- remaining activity at 3.75 µM ([2]; Well no.=8490): 96.1%

SMILES: CC(Cc1ccccc1)(NC(=O)CN)c1ccccc1 (centres unmarked) [Remacemide hydrochloride]
- remaining activity at 1.25 µM ([1]; Well no.=5380): 99%
- remaining activity at 3.75 µM ([2]; Well no.=5380): 94.8%

SMILES: Cc1ccc(NC(=O)Nc2cc(-c3ccccc3-c3nn[nH]n3)ccc2N(CC(C)C)CC(C)C)cc1 [IDO-IN-2]
- remaining activity at 1.25 µM ([1]; Well no.=8123): 99.9%
- remaining activity at 3.75 µM ([2]; Well no.=8123): 94.6%

SMILES: CC(=O)NS(=O)(=O)c1ccc(NC(=O)c2ccccc2C(=O)O)cc1 [Phthalylsulfacetamide]
- remaining activity at 1.25 µM ([1]; Well no.=7356): 105%
- remaining activity at 3.75 µM ([2]; Well no.=7356): 100%

SMILES: Cc1cccc([C@H](C)c2c[nH]cn2)c1C [Dexmedetomidine (hydrochloride)]
- remaining activity at 1.25 µM ([1]; Well no.=6367): 102%
- remaining activity at 3.75 µM ([2]; Well no.=6367): 103%

SMILES: CC1(C)C[C@@H]1C(=O)N/C(=C\CCCCSC[C@H](N)C(=O)O)C(=O)O [Cilastatin]
- remaining activity at 1.25 µM ([1]; Well no.=2198): 94.3%
- remaining activity at 3.75 µM ([2]; Well no.=2198): 95.6%

SMILES: O=[N+]([O-])c1cn2c(n1)OC[C@@H](OCc1ccc(OC(F)(F)F)cc1)C2 [PA-824]
- remaining activity at 1.25 µM ([1]; Well no.=4709): 104%
- remaining activity at 3.75 µM ([2]; Well no.=4709): 104%

SMILES: Oc1ccc2ccccc2c1 [2-Naphthol]
- remaining activity at 1.25 µM ([1]; Well no.=7155): 103%
- remaining activity at 3.75 µM ([2]; Well no.=7155): 99.5%

SMILES: COc1ccc(-c2cc(=S)ss2)cc1 [Anethole-trithione]
- remaining activity at 1.25 µM ([1]; Well no.=1856): 91.9%
- remaining activity at 3.75 µM ([2]; Well no.=1856): 92.4%

SMILES: [2H]C([2H])([2H])NC[C@H](O)c1cccc(O)c1 [(R)-(-)-Phenylephrine (hydrochloride)]
- remaining activity at 1.25 µM ([1]; Well no.=6707): 98.6%
- remaining activity at 3.75 µM ([2]; Well no.=6707): 95.4%

SMILES: NCCCC[C@H](NC(=O)[C@H](Cc1c[nH]c2ccccc12)NC(=O)[C@@H](N)CCCCN)C(=O)O [H-Lys-Trp-Lys-OH] (H-Lys-Trp-Lys-OH)
- remaining activity at 1.25 µM ([1]; Well no.=8180): 103%
- remaining activity at 3.75 µM ([2]; Well no.=8180): 103%

SMILES: CC1(C)O[C@H]2CC(=O)OC[C@]23[C@H]2CC[C@@]4(C)[C@H](c5ccoc5)OC(=O)[C@H]5O[C@]54[C@]2(C)C(=O)C[C@@H]13 [Limonin]
- remaining activity at 1.25 µM ([1]; Well no.=3655): 99.2%
- remaining activity at 3.75 µM ([2]; Well no.=3655): 102%

SMILES: COc1ccc(C2(C#N)CCC(C(=O)O)CC2)cc1OC1CCCC1 (centres unmarked) [4-cyano-4-[3-(cyclopentyloxy)-4-methoxyphenyl]cyclohexanecarboxylic acid]
- remaining activity at 1.25 µM ([1]; Well no.=5837): 101%
- remaining activity at 3.75 µM ([2]; Well no.=5837): 99.9%

SMILES: CC(C)NCC(O)COc1ccc(CCOCC2CC2)cc1 (centres unmarked) [Betaxolol (hydrochloride)]
- remaining activity at 1.25 µM ([1]; Well no.=6849): 107%
- remaining activity at 3.75 µM ([2]; Well no.=6849): 102%

SMILES: CC(=O)N[C@H]1CN2CC[C@H](O)[C@@H]2[C@@H](O)[C@@H]1O [6-Acetamido-6-deoxy-castanospermine]
- remaining activity at 1.25 µM ([1]; Well no.=3294): 97.4%
- remaining activity at 3.75 µM ([2]; Well no.=3294): 99.3%

SMILES: OCCN(CCO)c1nc(N2CCCCC2)c2nc(N(CCO)CCO)nc(N3CCCCC3)c2n1 [Dipyridamole]
- remaining activity at 1.25 µM ([1]; Well no.=682): 103%
- remaining activity at 1.25 µM ([1]; Well no.=1863): 95.1%
- remaining activity at 3.75 µM ([2]; Well no.=682): 100%
- remaining activity at 3.75 µM ([2]; Well no.=1863): 94.7%

SMILES: CCCCN1CCC(CNC(=O)c2c3n(c4ccccc24)CCCO3)CC1 [Piboserod]
- remaining activity at 1.25 µM ([1]; Well no.=7965): 93.1%
- remaining activity at 3.75 µM ([2]; Well no.=7965): 93.6%

SMILES: O=C1c2c(O)cc(O)cc2O[C@H](c2cc(O)c(O)c(O)c2)[C@H]1O [(2R,3R)-3,5,7-trihydroxy-2-(3,4,5-trihydroxyphenyl)-2,3-dihydro-4H-chromen-4-one]
- remaining activity at 1.25 µM ([1]; Well no.=5388): 106%
- remaining activity at 3.75 µM ([2]; Well no.=5388): 111%
